Measured values from article PMC12655551, “Design, Synthesis, and Evaluation of Pyrrole-Based Selective MAO-B Inhibitors with Additional AChE Inhibitory and Neuroprotective Properties Identified via Virtual Screening” (Pharmaceuticals, 2025).

How the values were obtained:
BChE = molecular target: T1, BChE (Equus caballus, UniProt P81908); experiment: biochemical; settings: for inhibition at 200 µM: read-out: Inhibition Activity 200 µM BChE; for IC50: means ± SD of three experiments, read-out: BChE IC50
T1 construct: purchased Sigma-Aldrich, Hamburg, Germany; host or cells: equine serum
Description: (§1) AChE and BChE inhibitory activity of the newly synthesized pyrrole-based compounds was measured using the microplate assay described by Ellman et al. with the modifications added by López et al.. The compounds were tested at concentrations between 0.01 and 200 μM. First, they were dissolved in phosphate buffer (PBS) (8 mM K2HPO4, 2.3 mM NaH2PO4, 0.15 M NaCl, pH 7.5), assisted by the addition of no more than 5% MeOH. Then, they were serially diluted with PBS to provide the concentration range needed. Acetylcholinesterase from Electrophorus electricus and butyrylcholinesterase from equine serum (Sigma-Aldrich, Hamburg, Germany) were used with a substrate solution of 5,5′-dithiobis(2-nitrobenzoic acid) (DTNB) with acetylthiocholine iodide (ATCI) or butyrylthiocholine iodide (BTCI), respectively (0.04 M Na2HPO4, 0.2 mM DTNB, 0.24 mM ATCI or BTCI, pH 7.5). A total of 50 μL of AChE or BChE (0.25 U/mL, in PBS) and 50 μL of the tested compound solution were added to the wells. Incubation of the plates was performed at room temperature for 30 min. Then, 100 μL of substrate solution was added to start the enzymatic reaction. […] Enzyme activity was calculated as an inhibition percentage compared to an assay including buffer instead of an inhibitor.

AChE = molecular target: T2, AChE (Electrophorus electricus, UniProt O42275); experiment: biochemical; type: biochemical; settings: for inhibition at 200 µM: 200 µM compound; for IC50: means ± SD of three experiments
T2 construct: purchased Sigma-Aldrich, Hamburg, Germany
Description: as §1

[1] = molecular target: T3, recombinant human MAO-A (hMAOA) (Homo sapiens, UniProt P21397); experiment: MAO-A inhibition, fluorometric Amplex UltraRed assay; type: biochemical; settings: for inhibition at 1 µM: 1 µM compound, read-out: Inhibition Activity 1 µM MAO-A; for IC50: means ± SD of three experiments, read-out: MAO-A IC50
T3 sequence (P21397 1-527): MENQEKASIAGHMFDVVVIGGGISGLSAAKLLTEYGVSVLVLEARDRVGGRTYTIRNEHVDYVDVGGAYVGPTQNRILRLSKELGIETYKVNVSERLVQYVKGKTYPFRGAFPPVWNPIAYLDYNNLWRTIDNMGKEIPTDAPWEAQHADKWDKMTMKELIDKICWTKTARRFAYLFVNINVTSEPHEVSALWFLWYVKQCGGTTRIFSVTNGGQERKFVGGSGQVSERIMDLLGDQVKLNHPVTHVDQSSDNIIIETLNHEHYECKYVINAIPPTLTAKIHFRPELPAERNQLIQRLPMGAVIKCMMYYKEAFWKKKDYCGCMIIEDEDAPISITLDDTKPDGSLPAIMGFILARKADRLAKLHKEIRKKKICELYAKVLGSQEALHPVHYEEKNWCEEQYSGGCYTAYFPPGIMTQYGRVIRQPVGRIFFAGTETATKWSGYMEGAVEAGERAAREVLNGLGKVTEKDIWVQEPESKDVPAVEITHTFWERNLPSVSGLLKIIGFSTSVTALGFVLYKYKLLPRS
Description: (§2) Monoamine oxidase (MAO) activity for both recombinant human MAO-A (hMAOA) and MAO-B (hMAOB) was assessed using a fluorometric assay based on the Amplex® UltraRed reagent. This method, originally reported by Bautista-Aguilera et al. and later adapted with minor changes by Kasabova-Angelova et al., detects hydrogen peroxide or peroxidase activity present in enzymes or biological samples. In this assay, Amplex® Red reacts in a 1:1 molar ratio with hydrogen peroxide in the presence of peroxidase, producing the red-fluorescent compound resorufin. Due to resorufin’s strong extinction coefficient (58,000 ± 5000 cm^−1·M^−1), measurements could be accurately taken using either fluorometric or spectrophotometric methods. […] The control conditions included the use of purified hMAOA or hMAOB in reaction buffer, enzyme solutions with hydrogen peroxide, and buffer alone. All the test compounds were initially prepared at a 1 µM final concentration. These compounds were combined with either hMAOA or hMAOB and loaded into a 96-well plate (with eight replicates per test compound), followed by incubation for 30 min at 37 °C in the dark. Subsequently, a 50 µL detection mix was added to each well. This mix contained Amplex® Red, horseradish peroxidase (HRP), and tyramine substrate, all prepared in a reaction buffer. As this enzymatic reaction proceeded continuously, the fluorescence signal was recorded every 30 min (at 0, 30, 60, 90, 120, and 150 min) to track enzymatic kinetics.

[2] = molecular target: T4, recombinant human MAO-B (hMAOB) (Homo sapiens, UniProt P27338); experiment: biochemical; type: biochemical; settings: for inhibition at 1 µM: 1 µM compound
T4 sequence (P27338 1-520): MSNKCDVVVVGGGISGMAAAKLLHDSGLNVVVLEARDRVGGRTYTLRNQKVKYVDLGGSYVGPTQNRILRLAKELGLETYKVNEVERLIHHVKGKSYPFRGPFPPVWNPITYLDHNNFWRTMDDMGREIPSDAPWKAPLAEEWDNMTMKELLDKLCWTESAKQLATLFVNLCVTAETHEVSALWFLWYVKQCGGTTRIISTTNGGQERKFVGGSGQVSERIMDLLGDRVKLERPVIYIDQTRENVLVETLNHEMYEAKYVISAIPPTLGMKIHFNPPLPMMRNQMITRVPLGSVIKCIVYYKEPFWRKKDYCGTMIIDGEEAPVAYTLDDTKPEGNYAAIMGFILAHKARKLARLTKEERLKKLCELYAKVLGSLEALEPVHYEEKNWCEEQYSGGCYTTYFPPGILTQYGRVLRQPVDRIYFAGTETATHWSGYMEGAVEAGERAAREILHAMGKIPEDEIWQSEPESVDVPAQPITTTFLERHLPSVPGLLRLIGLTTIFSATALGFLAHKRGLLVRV
Description: as §2

[3] = means ± SD of three experiments

T1 sequence (P81908 whole entry): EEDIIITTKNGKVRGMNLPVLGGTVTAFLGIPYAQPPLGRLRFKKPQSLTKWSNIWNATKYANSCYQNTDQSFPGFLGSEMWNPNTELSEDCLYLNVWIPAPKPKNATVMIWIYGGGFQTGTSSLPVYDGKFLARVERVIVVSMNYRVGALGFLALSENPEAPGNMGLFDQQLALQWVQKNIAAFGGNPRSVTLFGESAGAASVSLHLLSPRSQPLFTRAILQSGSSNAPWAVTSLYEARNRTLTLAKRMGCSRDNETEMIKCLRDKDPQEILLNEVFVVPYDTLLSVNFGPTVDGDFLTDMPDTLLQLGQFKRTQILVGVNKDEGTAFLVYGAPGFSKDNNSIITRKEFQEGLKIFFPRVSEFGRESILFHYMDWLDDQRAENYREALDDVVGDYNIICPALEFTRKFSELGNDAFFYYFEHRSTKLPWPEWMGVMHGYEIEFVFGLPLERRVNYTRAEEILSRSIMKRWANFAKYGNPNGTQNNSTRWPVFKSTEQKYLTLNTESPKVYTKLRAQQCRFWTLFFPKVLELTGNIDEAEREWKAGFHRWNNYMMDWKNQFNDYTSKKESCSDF
T2 sequence (O42275 24-633): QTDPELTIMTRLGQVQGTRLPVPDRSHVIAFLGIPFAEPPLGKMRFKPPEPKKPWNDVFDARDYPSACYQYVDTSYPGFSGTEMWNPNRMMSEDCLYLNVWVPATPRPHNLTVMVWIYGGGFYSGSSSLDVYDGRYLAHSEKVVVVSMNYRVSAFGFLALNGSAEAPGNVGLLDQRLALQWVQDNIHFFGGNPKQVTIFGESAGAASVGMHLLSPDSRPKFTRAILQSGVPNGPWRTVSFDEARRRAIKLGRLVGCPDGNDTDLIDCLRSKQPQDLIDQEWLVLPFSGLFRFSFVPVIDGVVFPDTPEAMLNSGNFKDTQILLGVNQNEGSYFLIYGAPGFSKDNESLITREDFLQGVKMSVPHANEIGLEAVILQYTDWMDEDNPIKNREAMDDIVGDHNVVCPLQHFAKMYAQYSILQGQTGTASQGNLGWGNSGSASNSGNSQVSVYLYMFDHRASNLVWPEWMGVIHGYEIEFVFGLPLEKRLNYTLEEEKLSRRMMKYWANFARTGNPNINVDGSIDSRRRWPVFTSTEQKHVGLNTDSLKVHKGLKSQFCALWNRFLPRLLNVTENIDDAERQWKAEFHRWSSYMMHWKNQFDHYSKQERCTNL

SMILES | inhibition at 200 µM (BChE) | inhibition at 200 µM (AChE) | IC50 (AChE) | IC50 (BChE) | inhibition at 1 µM [1] | IC50 [1] | inhibition at 1 µM [2] | IC50 [2, 3] | MAO-B IC50 [2, 3]
COc1cc2c(cc1OC)C(=O)C(CC1CCN(Cc3ccccc3)CC1)C2 (stereo not shown) [Donepezil, reference compound] | 92.25 ± 0.22% | – | – | – | – | – | – | – | –
Cc1ccc(C)n1-c1ccc(O)cc1 [EM-DC-1, 4-(2,5-dimethyl-1H-pyrrol-1-yl)phenol] | 53.9 ± 2.14% | 7.52 ± 2.07% | > 200 µM | 173 ± 7.3 µM | 55 ± 7.1% | 0.32 ± 0.1 µM | 99 ± 7.1% | > 100 µM | –
Cc1ccc(C)n1-c1ccc(C(=O)O)cc1 [EM-DC-2, 4-(2,5-dimethyl-1H-pyrrol-1-yl)benzoic acid] | 57.2 ± 0.58% | 93.6 ± 4.66% | 0.75 ± 0.06 µM | 158 ± 11.8 µM | 75 ± 6.9% | 0.43 ± 0.1 µM | 75 ± 7.1% | – | –
Cc1ccc(C)n1-c1ccccc1Br [EM-DC-3, 1-(2-bromophenyl)-2,5-dimethyl-1H-pyrrole] | 0.04 ± 9.01% | 8.32 ± 2.64% | > 200 µM | > 200 µM | 70 ± 7.2% | 0.52 ± 0.1 µM | 75 ± 7.1% | 0.56 ± 0.1 µM | –
Cc1ccc(C)n1-c1ccc(Br)cc1 [EM-DC-4, 1-(4-bromophenyl)-2,5-dimethyl-1H-pyrrole] | 0% | 1.4 ± 0.38% | > 200 µM | > 200 µM | 60 ± 6.8% | 0.32 ± 0.1 µM | 98 ± 7.1% | > 100 µM | –
COc1ccc(C)cc1-n1c(C)ccc1C [EM-DC-5, 1-(2-methoxy-5-methylphenyl)-2,5-dimethyl-1H-pyrrole] | 74 ± 1.56% | 39.8 ± 2.64% | > 200 µM | 73.8 ± 5.96 µM | 98 ± 7.3% | > 100 µM | 99 ± 7.1% | > 100 µM | –
Cc1ccc(C)n1-c1ccc2c(c1)OCO2 [EM-DC-6, 1-(2H-1,3-benzodioxol-5-yl)-2,5-dimethyl-1H-pyrrole] | 36.3 ± 3.54% | 65 ± 1.14% | 128 ± 1.87 µM | > 200 µM | 97 ± 7.1% | > 100 µM | 98 ± 7.1% | > 100 µM | –
Cc1ccc(C)n1CCc1ccccc1 [EM-DC-7, 2,5-dimethyl-1-(2-phenylethyl)-1H-pyrrole] | 43.9 ± 1.7% | 11.9 ± 2.33% | > 200 µM | > 200 µM | 80 ± 7.2% | 0.51 ± 0.1 µM | 75 ± 7.1% | 0.49 ± 0.1 µM | submicromolar range
Cc1ccc(C)n1CCc1ccc(Cl)cc1 [EM-DC-8, 1-[2-(4-chlorophenyl)ethyl]-2,5-dimethyl-1H-pyrrole] | 35.4 ± 2.91% | 31.1 ± 2.48% | > 200 µM | > 200 µM | 99 ± 7.3% | > 100 µM | 99 ± 7.1% | > 100 µM | –
Cc1ccc(C)n1CCc1ccc(O)cc1 [EM-DC-9, 4-[2-(2,5-dimethyl-1H-pyrrol-1-yl)ethyl]phenol] | 73.7 ± 4.5% | 72.9 ± 3.02% | 76.8 ± 4.68 µM | 69.5 ± 7.52 µM | 98 ± 6.8% | > 100 µM | 98 ± 7.1% | > 100 µM | –
Cc1ccc(C)n1CC(O)c1ccc(O)cc1 (stereo not shown) [EM-DC-10, 4-[2-(2,5-dimethyl-1H-pyrrol-1-yl)-1-hydroxyethyl]phenol] | 87.2 ± 1.6% | 60.4 ± 1.05% | 148 ± 5.91 µM | 11.3 ± 0.87 µM | 99 ± 6.8% | > 100 µM | 99 ± 7.1% | > 100 µM | –
COc1ccc2c3c1O[C@H]1C[C@@H](O)C=C[C@@]31CCN(C)C2 [Galanthamine, reference compound] | 89.16 ± 0.44% | – | – | – | – | – | – | – | –
